# Results from US20090239884A1, “Methods of Treating Inflammation” (priority 2006, published 2009).
# pIC50: −log10 of the molar value.
# Experiments:
# [1] = system: Con A-activated splenocytes on TNF-α activated bEnd.3 endothelial cells; experiment: T cell-endothelial cell adhesion assay (Example 13); assay type: cell-based, mouse
# Protocol: (§1) Cell treatment. Confluent bEnd.3 monolayers were incubated with 200 ng/ml TNF-α (Peprotech, Rocky Hill, N.J.) at 37° c. for 2 hours. […] Christoff Zitt and Armin Hatzelmann (Altana Pharma, Konstanz, Germany). Con A-activated splenocytes or CD4^+CD25^− T cells activated with plate-bound anti-CD3 mAb were treated with the same reagents for 20, 45, or 90 minutes.
# Adhesion assays. Adhesion assays were performed in 24-well plates with a confluent layer of bEnd.3 cells. Splenocytes or CD4^+CD25^− T cells were labeled with 5 μM Calcein AM (Molecular Probes, Eugene, Oreg.) and treated as described above. 7×10^5 pretreated splenocytes or CD4^+CD25^− T cells per well were incubated on bEnd.3 cells in RPMI media. After 30 minutes at 37° C., non-adherent cells were removed by washing with D-PBS. For analysis, 7×10^5 Calcein AM labeled splenocytes or CD4^+CD25^− T cells were used as positive controls. Fluorescence was read in a Victor 3v microplate reader (Perkin Elmer, Waltham, Mass.) with a fluorescein filter set. The percentage of adherent T cells, i.e. labeled cells resistant to detachment, was calculated as total fluorescence of well divided by fluorescence of 7×10^5 Calcein AM labeled cells multiplied by 100.
# In FIGS. 20A-20B, splenocytes from C57BL/6 mice were activated with Con A (3 μg/ml) for 48 hours followed by a 45 minute incubation with (A) IBMX (300 μM), piclamilast (Picl, 1 μM) or DP (100 μM), (B) dibutryl cAMP (Db-cAMP, 500 μM) or DP in the presence or absence of adenosine deaminase (AD, 1 U/ml) or vehicle (0.1% DMSO). bEnd.3 endothelial cells were activated for 2 hours with TNF-α (200 ng/ml) and incubated with the same reagents for the final 45 minutes before splenocytes were added to the bEnd.3 cells for the adhesion assay. The data are presented as the mean±SEM percentage of splenocytes which were resistant to detachment. Results are representative of at least three independent experiments run in triplicate (*p<0.05, **p<0.001; one way ANOVA followed by Bonferroni t-test).
# [2] = system: EAE in C57BL/6 mice; experiment: experimental autoimmune encephalomyelitis (EAE), clinical score; assay type: in vivo, mouse
# Protocol: Induction of active EAE and clinical evaluation. Active EAE is induced in 8-12 weeks old mice by immunization with MOG p35-55 in complete Freund's adjuvant. 200 μg of MOG p35-55 peptide and 800 μg of killed mycobacterium tuberculosis are emulsified in CFA and injected subcutaneously by means of four injections over the flanks. In addition, 200 ng of pertussis toxin dissolved in 200 μl PBS is injected i.p. at the day of immunization and again the day after. Mice are monitored daily for clinical signs of EAE, and scored according to the following criteria: 0, no signs of disease; 0.5, partial tail weakness; 1, limp tail; 1.5, limp tail and slight slowing of righting; 2, partial hind limb weakness and/or marked slowing of righting; 2.5, dragging of hind limb(s) without complete paralysis; 3, complete paralysis of at least one hind limb; 4, severe forelimb weakness; 5, moribund or dead. Daily clinical scores are calculated and presented as the average (mean) and standard error of the mean (SEM) of all individual disease scores in each group. Statistical comparison of disease severity by clinical score is accomplished by calculating the mean clinical score for each mouse from day of disease onset to day 60 and performing a non-parametric Wilcoxon analysis.
# […] 8. DP is the only inhibitor known to block PDE 8 in addition to other PDEs. […]
# [3] = system: CD4+CD25− T cells; experiment: cAMP levels in CD4+CD25− T cells; assay type: cell-based, mouse; conditions: 20 minutes of treatment; resolved by 90 minutes
# [4] = system: bEnd.3 endothelial cells; experiment: qRT-PCR gene expression in TNF-α activated bEnd.3 endothelial cells; assay type: cell-based, mouse; conditions: DP 100 μM
# Protocol: Quantitative real-time RT-PCR analysis. 10 ng cDNA, or 2 μl cDNA for LCM studies, was amplified by qRT-PCR in a 25 μl reaction using SYBR Green PCR Master Mix (Applied Biosystems, Foster City, Calif.). Primers were designed using Primer Express software v3.0 and primer efficiency verified by slope analysis to be 100%±2.5%. qRT-PCR was performed using an ABI 7500 fast system and data analyzed using the Δ^ct method (SDS software v3.0). Amplicon sizes were approximately 100 bp.
# as §1
# In FIG. 23A, bEnd.3 endothelial cells were activated for 2 hours with TNF-α (200 ng/ml) and (A) DP (100 μM) or vehicle (0.1% DMSO) for the final 45 minutes. PDE gene expression was then analyzed by qRT-PCR and the data presented as the mean+SEM of 3 independent experiments assayed in triplicate (*p<0.05, **p<0.001; unpaired t-test).
# The data are shown as a mean±SEM percentage of vehicle control and represent 3 independent experiments assayed in triplicate (*p<0.05, * *p<0.001; unpaired t-test).
# [5] = system: PDE8A; conditions: expressed forms of PDE8A; read-out: reported IC50s, PDE8A; cited from earlier work
# [6] = system: PDE8; conditions: read-out: Potency (IC50) PDE8; cited from earlier work
# [7] = system: peripheral blood mononuclear cells; conditions: cited from earlier work
# [8] = system: T1, PDE8A; conditions: expressed forms of full length cDNAs for PDE8; cited from earlier work
# T1 construct: other: expressed forms of full length cDNAs for PDE8
# [9] = 45 minutes, dibutryl cAMP 500 μM, 8-bromo-cAMP 500 μM
compound,measurement,setting,value
"OCCN(CCO)c1nc(N2CCCCC2)c2nc(N(CCO)CCO)nc(N3CCCCC3)c2n1 [Dipyridamole, 2,2′,2″,2′″-(4,8-di(piperidin-1-yl)pyrimido[5,4-d]pyrimidine-2,6-diyl)bis(azanetriyl)tetraethanol]",reduction of adhesion of T cells,"[1]; short term, activated endothelial cells (discussion)",65%
same,development of clinical signs of EAE,"[2]; 2 mg DP per mouse per day, day 0 until day 23",profoundly suppressed
same,clinical severity of EAE compared with vehicle,"[2]; treatment after onset (mean score grade 1), 2×1 mg/mouse/day i.p.",significantly decreased
same,cAMP in CD4+CD25− T cells,[3],increase
same,reduction of ICAM-1 mRNA expression,"[4]; 45 minutes, dibutryl cAMP 500 μM",65%
same,increase of claudin-5 gene expression,[4]; [9],111%
same,reduction of CXCL12 gene expression,[4]; [9],69%
same,reduction of VCAM-1 gene expression,[4]; [9],60%
same,PDE4B expression in bEnd.3 cells,[4]; final 45 minutes of TNF-α,compensatory increase
same,"expression of other PDE genes, including PDE8A, in bEnd.3 cells",[4]; final 45 minutes of TNF-α,not significantly altered
same,pIC50,[5],5.05 to 5.40
same,pIC50,[6],5.05 to 5.40
same,lipopolysaccharide-stimulated release of TNF-α,[7],inhibit
"CC(C)Cn1c(=O)n(C)c(=O)c2[nH]cnc21 [IBMX, 3-isobutyl-1-methylxanthine]",ability to reduce adhesion of activated T cells to endothelial cells,"[1]; 45 minute incubation, IBMX 300 μM, piclamilast 1 μM, motapizone 1 μM",neither
same,cAMP in CD4+CD25− T cells,[3],increase
same,inhibition of expressed forms of PDE8,[8],resistant
